{"source": "patent US6417211B1", "about": "“Isothiazolone concentrates” (Rohm and Haas Company, priority 1999, dated 2002)", "key": {"[1]": {"test": "Chemical stability of MI solutions on storage (HPLC, % active ingredient remaining)", "assay_type": "physicochemical", "details": "± 1-2%"}, "[2]": {"test": "Physical stability of MI solutions on storage (homogeneity, clarity, crystallization, precipitation, phase separation)", "assay_type": "physicochemical", "method": "By “physically stable” we mean that the compositions are homogeneous and fluid at temperatures of 20 to 25° C. for at least 24 hours. Preferably the compositions are physically stable at 20° C. and below for at least 3 days, more preferably for at least 2 weeks, and most preferably for at least 4 weeks. In addition, it is desirable that the compositions retain their physical stability for similar time periods at temperatures of 15° C. and below, and preferably at 5° C. and below.\nSamples of technical grade 2-methyl-3-isothiazolone (MI) were used to prepare solutions of the NHITA in various solvents at different concentrations. […] Solutions were prepared by adding a weighed amount of molten MI (melted at about 55° C.) to a weighed amount of deionized water (or a solvent or a solvent-water mixture) in a 20-milliliter (ml) vial; the mixture was swirled and allowed to cool to room temperature. The prepared samples were allowed to stand at room temperature (20-25° C.) for 24 hours and then subjected to storage at cooler temperatures (5° C. and −17° C.) for at least 72 hours; observations were made at each condition to determine physical stability (homogeneity, clarity, crystallization, precipitation, phase separation). The samples were considered physically stable if no crystallization, phase separation or precipitation occurred; concentrations (or concentration ranges) at which the compositions were unstable are indicated by ** superscript, otherwise concentrations (ranges) listed were stable; results are summarized in Table I (concentrations are weight % MI)."}, "[3]": {"details": "solvent DEC (diethyl carbonate), 20-25° C., 24 hours"}, "[4]": {"details": "solvent DME (1,2-dimethoxyethane), 20-25° C., 24 hours"}, "[5]": {"details": "solvent DMSO, 20-25° C., 24 hours"}, "[6]": {"details": "solvent IPA (isopropanol), 5° C., at least 72 hours"}, "[7]": {"details": "solvent MeOH, 5° C., at least 72 hours"}, "[8]": {"details": "solvent PC (propylene carbonate), 20-25° C., 24 hours"}, "[9]": {"details": "solvent PG (propylene glycol), 5° C., at least 72 hours"}, "[10]": {"details": "solvent Water, 5° C., at least 72 hours"}, "[11]": {"details": "solvent Water, 20-25° C., 24 hours"}, "[12]": {"details": "solvent Water, −17° C., at least 72 hours"}}, "note": "Marks after values point to notes of the source that are not given here.", "data": [{"smiles": "Cn1sccc1=O", "note": "[MI, 2-Methyl-3-isothiazolone]", "values": [{"measurement": "% Active Ingredient (MI) Remaining", "setting": "[1]; initial MI concentration 68, PG, 40° C./11 days", "result": 100, "unit": "%"}, {"measurement": "% Active Ingredient (MI) Remaining", "setting": "[1]; initial MI concentration 78, MeOH, 40° C./11 days", "result": 104, "unit": "%"}, {"measurement": "% Active Ingredient (MI) Remaining", "setting": "[1]; initial MI concentration 85.8, Water, 55° C./4 weeks", "result": 97.1, "unit": "%"}, {"measurement": "% Active Ingredient (MI) Remaining", "setting": "[1]; initial MI concentration 88, 50/50 MeOH/Water, 40° C./11 days", "result": 101, "unit": "%"}, {"measurement": "time solution remained stable", "setting": "[2]; 80% MI solution in water, 5° C.", "result": "at least 4 months"}, {"measurement": "time solution remained stable", "setting": "[2]; 90% MI solution in water, 5° C.", "result": "at least 4 months"}, {"measurement": "MI concentration physically stable", "setting": "[2]; solvent 50/50 MeOH/Water, 5° C., at least 72 hours", "result": 88, "unit": "weight %"}, {"measurement": "MI concentration physically stable", "setting": "[2]; solvent 50/50 MeOH/Water, 20-25° C., 24 hours", "result": 88, "unit": "weight %"}, {"measurement": "MI concentration physically unstable (crystal formation or insoluble)", "setting": "[2]; solvent 50/50 MeOH/Water, −17° C., at least 72 hours", "result": "88** weight %"}, {"measurement": "MI concentration physically unstable (crystal formation or insoluble)", "setting": "[2]; solvent BEE (2-(2-butoxyethoxyl)ethanol), 5° C., at least 72 hours", "result": "68-88** weight %"}, {"measurement": "MI concentration physically stable", "setting": "[2]; solvent BEE (2-(2-butoxyethoxyl)ethanol), 20-25° C., 24 hours", "result": "68-88 weight %"}, {"measurement": "MI concentration physically unstable (crystal formation or insoluble)", "setting": "[2]; solvent DEC (diethyl carbonate), 5° C., at least 72 hours", "result": "70** weight %"}, {"measurement": "MI concentration physically stable", "setting": "[2]; [3]", "result": 70, "unit": "weight %"}, {"measurement": "MI concentration physically unstable (crystal formation or insoluble)", "setting": "[2]; [3]", "result": "80-90 weight %"}, {"measurement": "MI concentration physically unstable (crystal formation or insoluble)", "setting": "[2]; solvent DME (1,2-dimethoxyethane), 5° C., at least 72 hours", "result": "70-80** weight %"}, {"measurement": "MI concentration physically stable", "setting": "[2]; [4]", "result": "70-80 weight %"}, {"measurement": "MI concentration physically unstable (crystal formation or insoluble)", "setting": "[2]; [4]", "result": 90, "unit": "weight %"}, {"measurement": "MI concentration physically unstable (crystal formation or insoluble)", "setting": "[2]; solvent DMSO, 5° C., at least 72 hours", "result": "70-80** weight %"}, {"measurement": "MI concentration physically stable", "setting": "[2]; [5]", "result": "70-80 weight %"}, {"measurement": "MI concentration physically unstable (crystal formation or insoluble)", "setting": "[2]; [5]", "result": 90, "unit": "weight %"}, {"measurement": "MI concentration physically unstable (crystal formation or insoluble)", "setting": "[2]; solvent DPG (dipropylene glycol), 5° C., at least 72 hours", "result": "75-90** weight %"}, {"measurement": "MI concentration physically stable", "setting": "[2]; solvent DPG (dipropylene glycol), 20-25° C., 24 hours", "result": "75-90 weight %"}, {"measurement": "MI concentration physically stable", "setting": "[2]; [6]", "result": 78, "unit": "weight %"}, {"measurement": "MI concentration physically unstable (crystal formation or insoluble)", "setting": "[2]; [6]", "result": 88, "unit": "weight %"}, {"measurement": "MI concentration physically stable", "setting": "[2]; solvent IPA (isopropanol), 20-25° C., 24 hours", "result": "78-88 weight %"}, {"measurement": "MI concentration physically unstable (crystal formation or insoluble)", "setting": "[2]; solvent IPA (isopropanol), −17° C., at least 72 hours", "result": "78** weight %"}, {"measurement": "MI concentration physically stable", "setting": "[2]; [7]", "result": 78, "unit": "weight %"}, {"measurement": "MI concentration physically unstable (crystal formation or insoluble)", "setting": "[2]; [7]", "result": 88, "unit": "weight %"}, {"measurement": "MI concentration physically stable", "setting": "[2]; solvent MeOH, 20-25° C., 24 hours", "result": "78-88 weight %"}, {"measurement": "MI concentration physically stable", "setting": "[2]; solvent MeOH, −17° C., at least 72 hours", "result": 78, "unit": "weight %"}, {"measurement": "MI concentration physically unstable (crystal formation or insoluble)", "setting": "[2]; solvent PC (propylene carbonate), 5° C., at least 72 hours", "result": "69** weight %"}, {"measurement": "MI concentration physically stable", "setting": "[2]; [8]", "result": 69, "unit": "weight %"}, {"measurement": "MI concentration physically unstable (crystal formation or insoluble)", "setting": "[2]; [8]", "result": "80-90 weight %"}, {"measurement": "MI concentration physically stable", "setting": "[2]; [9]", "result": 68, "unit": "weight %"}, {"measurement": "MI concentration physically unstable (crystal formation or insoluble)", "setting": "[2]; [9]", "result": "78-88 weight %"}, {"measurement": "MI concentration physically stable", "setting": "[2]; solvent PG (propylene glycol), 20-25° C., 24 hours", "result": "68-88 weight %"}, {"measurement": "MI concentration physically stable", "setting": "[2]; solvent PG (propylene glycol), −17° C., at least 72 hours", "result": 68, "unit": "weight %"}, {"measurement": "MI concentration physically stable", "setting": "[2]; [10]", "result": "60-89.5 weight %"}, {"measurement": "MI concentration physically unstable (crystal formation or insoluble)", "setting": "[2]; [10]", "result": 90.5, "unit": "weight %"}, {"measurement": "MI concentration physically stable", "setting": "[2]; [11]", "result": "60-94.4 weight %"}, {"measurement": "MI concentration physically unstable (crystal formation or insoluble)", "setting": "[2]; [11]", "result": 95.4, "unit": "weight %"}, {"measurement": "MI concentration physically stable", "setting": "[2]; [12]", "result": "70-77 weight %"}, {"measurement": "MI concentration physically unstable (crystal formation or insoluble)", "setting": "[2]; [12]", "result": 88, "unit": "weight %"}, {"measurement": "MI concentration physically stable", "setting": "[2]; solvent φCH2OH (benzyl alcohol), 5° C., at least 72 hours", "result": 60, "unit": "weight %"}, {"measurement": "MI concentration physically stable", "setting": "[2]; solvent φCH2OH (benzyl alcohol), 20-25° C., 24 hours", "result": 60, "unit": "weight %"}, {"measurement": "MI concentration physically unstable (crystal formation or insoluble)", "setting": "[2]; solvent φCH2OH (benzyl alcohol), −17° C., at least 72 hours", "result": "60** weight %"}, {"measurement": "MI concentration physically stable", "setting": "[2]; solvent φOCH2CH2OH (phenoxyethanol), 5° C., at least 72 hours", "result": 60, "unit": "weight %"}, {"measurement": "MI concentration physically stable", "setting": "[2]; solvent φOCH2CH2OH (phenoxyethanol), 20-25° C., 24 hours", "result": 60, "unit": "weight %"}, {"measurement": "MI concentration physically unstable (crystal formation or insoluble)", "setting": "[2]; solvent φOCH2CH2OH (phenoxyethanol), −17° C., at least 72 hours", "result": "60** weight %"}]}]}
